ChEMBL document CHEMBL1130996, “A depsipeptide fungal metabolite inhibitor of cholesteryl ester transfer protein” (Bioorg Med Chem Lett, 1998)
One block for each compound: values may come before it.

What was measured:
[1] = target: T1, Cholesteryl ester transfer protein (Homo sapiens, UniProt P11597); experiment: Compound was evaluated for inhibitory activity against cholesteryl ester transfer protein
T1 sequence (P11597 whole entry): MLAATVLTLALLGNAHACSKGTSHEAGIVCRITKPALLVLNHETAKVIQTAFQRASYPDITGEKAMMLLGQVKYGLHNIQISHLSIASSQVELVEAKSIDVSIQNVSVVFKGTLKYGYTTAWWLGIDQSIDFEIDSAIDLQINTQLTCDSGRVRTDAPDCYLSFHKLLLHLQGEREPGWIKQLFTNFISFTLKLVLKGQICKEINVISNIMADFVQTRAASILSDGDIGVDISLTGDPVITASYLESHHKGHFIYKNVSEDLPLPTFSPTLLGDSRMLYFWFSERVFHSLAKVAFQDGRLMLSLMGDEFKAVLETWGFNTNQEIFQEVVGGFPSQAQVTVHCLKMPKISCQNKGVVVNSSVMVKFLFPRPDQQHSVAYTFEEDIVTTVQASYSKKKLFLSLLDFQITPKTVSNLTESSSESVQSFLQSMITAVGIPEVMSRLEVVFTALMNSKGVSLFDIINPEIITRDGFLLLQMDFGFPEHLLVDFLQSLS

[2] = target: T1, Cholesteryl ester transfer protein; experiment: Compound was evaluated for inhibitory activity against cholesteryl ester transfer protein, reported from fungus; design: species or system Fungi
[3] = target: T1, Cholesteryl ester transfer protein; experiment: Compound was evaluated for inhibitory activity against cholesteryl ester transfer protein, reported from sponge
[4] = target: T1, Cholesteryl ester transfer protein; experiment: Compound was evaluated for inhibitory activity against cholesteryl ester transfer protein; Inactive
[5] = target: T1, Cholesteryl ester transfer protein; experiment: Compound was evaluated for inhibitory activity against cholesteryl ester transfer protein-SPA assay; Inactive

- IC50 [1]: 50 µM
- IC50 [2]: 40 µM
- IC50 [3]: 0.3 µM
Compound: CCCCC(C)C1CC(=O)N[C@@H](Cc2ccccc2)C(=O)N[C@@H](C)C(=O)N[C@@H](CC(C)C)C(=O)O1 (stereo not given in full)

- IC50 [4]: Not Active
Compound: CCCCC(C)/C=C/C(=O)N[C@@H](Cc1ccccc1)C(=O)N[C@@H](C)C(=O)N[C@@H](CC(C)C)C(=O)O (stereo not given in full)

- IC50 [5]: Not Active
Compound: CCCCC(C)C(O)CC(=O)N[C@@H](Cc1ccccc1)C(=O)N[C@@H](C)C(=O)N[C@@H](CC(C)C)C(=O)O (stereo not given in full)
